Test results published in patent US20240226048A1, “METHODS OF TREATMENT USING BEMPEDOIC ACID” (Esperion Therapeutics, Inc., priority 2023, published 2024).

Assay: CLEAR OUTCOMES trial: time-to-event cardiovascular efficacy end points
Assay type: in vivo, human
Conditions: for Primary efficacy endpoint (MACE-4), Hazard Ratio (95% CI): Cox proportional hazards, P 0.004; for Fatal and non-fatal MI, Hazard Ratio (95% CI): P 0.002; for 3-component MACE, Hazard Ratio (95% CI): P 0.006
Source text: The CLEAR OUTCOMES trial was a randomized, placebo-controlled, double-blind trial that enrolled patients at 1250 sites in 32 countries. An independent Data Monitoring Committee reviewed safety and efficacy data during the trial.
Patients 18 to 85 years of age were eligible for enrollment if they met either of two criteria for increased cardiovascular risk, a prior cardiovascular event (secondary prevention) or clinical features that placed them at high risk for a cardiovascular event (primary prevention). (Nicholls S, Lincoff A M, Bays H E, et al. Rationale and design of the CLEAR-outcomes trial: Evaluating the effect of bempedoic acid on cardiovascular events in patients with statin intolerance. Am Heart J. 2021 May; 235: 104-112) All patients provided written informed consent. Patients had to report statin intolerance due to an adverse effect that started or increased during statin therapy and resolved or improved after statin therapy was discontinued. Patients could be enrolled if they tolerated a very low average daily statin dose (e.g., an average daily dose of rosuvastatin <5 mg, atorvastatin <10 mg, simvastatin <10 mg, lovastatin <20 mg, pravastatin <40 mg, fluvastatin <40 mg, or pitavastatin <2 mg). Other lipid-lowering therapies were permitted, including ezetimibe, niacin, bile acid resins, fibrates, and/or proprotein convertase subtilisin kexin type 9 (PCSK9) inhibitors. Full inclusion and exclusion criteria are provided in Nicholls et al. (Am Heart J. 2021).
Eligible patients entered a 4-week run-in period during which patients were treated with single-blind placebo. If patients were intolerant to placebo treatment or if adherence was <80% by tablet count, they were not eligible for randomization. Patients who successfully completed the run-in period were randomly assigned in a 1:1 ratio to receive bempedoic acid at an oral dose of 180 mg or matching placebo, administered daily. Beginning 6 months after enrollment, the central laboratory notified the investigator if the patient's LDL-cholesterol level was ≥25% higher than baseline. These patients were counseled on healthy dietary guidelines and reminded to take all lipid-regulating medications. If repeat testing confirmed that LDL-cholesterol value met the threshold criteria, the provider could adjust the lipid-lowering treatment regimen per standard of care and local guidelines.
The primary end point was the first occurrence of a composite of death from cardiovascular causes, nonfatal myocardial infarction (MI), nonfatal stroke, or coronary revascularization. The first key secondary end point was time to the first occurrence of the composite of cardiovascular death, nonfatal stroke or MI. Further key secondary end points included time to first occurrence of each of the following outcomes tested in hierarchical order, fatal or nonfatal MI, coronary revascularization, fatal or nonfatal stroke, death from cardiovascular causes, and all-cause mortality.
This was an event-driven trial designed to provide at least 90% power to detect a 15% relative risk reduction for the primary composite end point at an overall two-sided significance level of 0.05. The trial required a minimum of 1620 primary composite events with >24 months of follow-up for all patients and at least 810 first key secondary end points. The average treatment duration was estimated to be 42 months and a lost-to-follow-up rate of 1% per year. Assuming a 3.59% annual event rate in the placebo group, enrollment of 12,600 patients was required, subsequently amended to 14,000. There were no interim efficacy analyses. A hierarchical approach was prespecified to evaluate sequentially each of the six key secondary efficacy end points with statistical significance at each step required to test the next hypothesis, thereby preserving the study-wise Type I error rate at 5%. All analyses were based on the intent-to-treat principle. […]

[1] = prespecified subgroup, interaction P=0.03
[2] = vs placebo, listed as bempedoic acid

## CC(C)(CCCCCC(O)CCCCCC(C)(C)C(=O)O)C(=O)O [Bempedoic Acid, Bempedoic acid]
180 mg oral daily, N = 6992
  3-component MACE, % of patients: 8.2%
  5 component MACE, % of patients: 11.9%
  All-cause mortality, % of patients: 6.2%
  All-cause mortality, nonfatal MI, nonfatal stroke, or coronary revascularization, % of patients: 13.8%
  All-cause mortality, nonfatal MI, nonfatal stroke, or coronary revascularization, number of patients: 962 number of patients
  All-cause mortality, number of patients: 434 number of patients
  Coronary revascularization, % of patients: 6.2%
  Coronary revascularization, number of patients: 435 number of patients
  Death from cardiovascular causes, % of patients: 3.8%
  Death from cardiovascular causes, number of patients: 269 number of patients
  Fatal MI, % of patients: 0.4%
  Fatal MI, number of patients: 29 number of patients
  Fatal and non-fatal MI, % of patients: 3.7%
  Fatal and non-fatal MI, number of patients: 261 number of patients
  Fatal and non-fatal stroke, % of patients: 1.9%
  Fatal and non-fatal stroke, number of patients: 135 number of patients
  Fatal and nonfatal hemorrhagic stroke, % of patients: 0.3%
  Fatal and nonfatal hemorrhagic stroke, number of patients: 20 number of patients
  Fatal and nonfatal non-hemorrhagic stroke, % of patients: 1.7%
  Fatal and nonfatal non-hemorrhagic stroke, number of patients: 118 number of patients
  Fatal stroke, % of patients: 0.3%
  Fatal stroke, number of patients: 18 number of patients
  Hospitalization for unstable angina, % of patients: 1.3%
  Hospitalization for unstable angina, number of patients: 91 number of patients
  Non-fatal MI, % of patients: 3.4%
  Non-fatal MI, number of patients: 236 number of patients
  Non-fatal stroke, % of patients: 1.7%
  Non-fatal stroke, number of patients: 119 number of patients
180 mg oral daily, N = 6992, median follow-up 40.6 months
  Primary efficacy endpoint (MACE-4), % of patients: 11.7%
MACE-4 or hospitalization for unstable angina (MACE-5), 180 mg oral daily, N = 6992
  5 component MACE, number of patients: 831 number of patients
Compared with placebo
  effect on other key secondary end points: time to first occurrence of stroke, death from cardiovascular causes, all-cause mortality: no significant effects
Death from cardiovascular causes, nonfatal MI, nonfatal stroke, or coronary revascularization, 180 mg oral daily, N = 6992, median follow-up 40.6 months
  Primary efficacy endpoint (MACE-4), number of patients: 819 number of patients
Death from cardiovascular causes, nonfatal MI, or nonfatal stroke (MACE-3), 180 mg oral daily, N = 6992
  3-component MACE, number of patients: 575 number of patients
n/N in patients with baseline glycemic status of no diabetes, 180 mg oral daily
  New-onset type 2 diabetes mellitus, number of patients: 429/3848
Patients with baseline glycemic status of no diabetes, 180 mg oral daily
  New-onset type 2 diabetes mellitus, % of patients: (11.1) %
[1]
  HR for the primary end point, primary prevention population: 0.68
  HR for the primary end point, secondary prevention population: 0.91
Vs placebo
  5 component MACE, Hazard Ratio (95% CI): 0.86 (0.78-0.94)
  All-cause mortality, Hazard Ratio (95% CI): 1.03 (0.90-1.18)
  All-cause mortality, nonfatal MI, nonfatal stroke, or coronary revascularization, Hazard Ratio (95% CI): 0.89 (0.82-0.97)
  Death from cardiovascular causes, Hazard Ratio (95% CI): 1.04 (0.88-1.24)
  Fatal MI, Hazard Ratio (95% CI): 1.38 (0.79-2.42)
  Fatal and non-fatal stroke, Hazard Ratio (95% CI): 0.85 (0.67-1.07)
  Fatal and nonfatal hemorrhagic stroke, Hazard Ratio (95% CI): 2.21 (1.01-4.85)
  Fatal and nonfatal non-hemorrhagic stroke, Hazard Ratio (95% CI): 0.78 (0.61-0.99)
  Fatal stroke, Hazard Ratio (95% CI): 1.12 (0.57-2.20)
  Hospitalization for unstable angina, Hazard Ratio (95% CI): 0.66 (0.50-0.86)
  Non-fatal stroke, Hazard Ratio (95% CI): 0.82 (0.64-1.05)
  reduction in coronary revascularization: 19%
  reduction in the composite of death from cardiovascular causes, stroke or MI: 15%
  reduction in the incidence of fatal or nonfatal MI: 23%
  reduction in the primary composite end point (death from cardiovascular causes, stroke, MI, or coronary revascularization): 13%
  Primary efficacy endpoint (MACE-4), Hazard Ratio (95% CI): 0.87 (0.79-0.96)
  Fatal and non-fatal MI, Hazard Ratio (95% CI): 0.77 (0.66-0.91)
  3-component MACE, Hazard Ratio (95% CI): 0.85 (0.76-0.96)
[2]
  Primary efficacy endpoint (MACE-4), Hazard Ratio (95% CI): 0.87
  Fatal and non-fatal MI, Hazard Ratio (95% CI): 0.77
  3-component MACE, Hazard Ratio (95% CI): 0.85
Vs placebo, P 0.001
  Coronary revascularization, Hazard Ratio (95% CI): 0.81
Vs placebo, patients with no diabetes at baseline
  New-onset type 2 diabetes mellitus, Hazard Ratio (95% CI): 0.95 (0.83-1.09)
